In brackets after ≈: the same amount, converted by molar mass. Where two headings read alike, the source gives them in different places. Non-standard residues stand in square brackets, D forms with d. Residues, ends and D or L forms follow the SMILES beside them. No end group written: not given here. *: point of attachment. Hyp = O=C(O)[C@@H]1C[C@@H](O)CN1; hArg = N=C(N)NCCCC[C@H](N)C(=O)O; β3hR = N=C(N)NCCC[C@H](N)CC(=O)O; Orn = NCCC[C@H](N)C(=O)O; NHPr = CCCN*
What was measured:
[1] = mouse, serum, Half-life in 25% mouse serum, 25% aqueous mouse serum, 37° C., 75 μg/mL peptide
E. coli BL21 A1 = format: cell-based, Escherichia coli
Outline: (§1)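 Broth microdilution in 1% TSB with twofold peptide series, final 128 μg/mL to 62.5 ng/mL, against 5×10^6 bacteria/mL stock suspension added 1:1. Incubated 20 h at 37 °C, growth read by absorbance at 595 nm; MIC is the lowest concentration with no growth, determined in triplicate.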

[2] = mouse, serum
Method: For this, the peptides and peptidomimetics were dissolved in water, mouse serum was added and the peptide concentration was adjusted to 75 μg/mL. While shaking continuously, the mixture was incubated at 37° C. After 0, 30, 60, 120, 240 and 360 minutes, in each case an aliquot was taken and mixed with 15% aqueous trichloroacetic acid (Carl Roth GmbH & Co. KG; Karlsruhe, Germany). After incubation on ice for a further 10 minutes, the precipitated serum proteins were centrifuged off (5 min, 13400 rpm, MiniSpin, Eppendorf AG, Hamburg, Germany). The supernatant was removed, neutralized with 1 mol/L aqueous sodium hydroxide solution (Fluke Chemie GmbH, Buchs, Switzerland) and stored at −20° C. until analysis.
The supernatants were analyzed by RP-HPLC with a linear acetonitrile gradient (Biosolve BV, Valkenswaard, The Netherlands) in the presence of 0.1% trifluoroacetic acid (TFA, UV-grade, Fluka Chemie GmbH, Buchs, Switzerland) as ion-pairing reagent. The fractions were co-crystallized with α-cyanohydroxycinnamic acid (Bruker Daltonik GmbH; Bremen, Germany) as matrix (5.3 mg/mL in 50% acetonitrile in 0.1% aqueous TFA) and were analyzed with a tandem mass spectrometer (MALDI-TOF/TOF-MS, 4700 Proteomics Analyzer; Applied Biosystems GmbH, Weiterstadt, Germany) in the positive-ion reflector mode. The proportion of intact peptides and their degradation products or metabolites could thus be identified and quantified at the individual time points. The control used was 25% aqueous mouse serum, which was analyzed in parallel for the same time intervals.

M. luteus 10240 = test: Growth inhibition assay (microdilution MIC); format: cell-based, Micrococcus luteus
Outline: as §1

Row | Compound | MIC E. coli BL21 A1 (E. coli BL21 A1; BL21, 20 h) [µg/mL] | MIC M. luteus 10240 (M. luteus 10240; 10240, 20 h) [µg/mL] | also measured
1 | CC[C@H](C)[C@H](NC(=O)[C@H](CCCNC(=N)N)NC(=O)[C@H](CCCNC(=N)N)NC(=O)[C@@H]1CCCN1C(=O)[C@@H]1CCCN1C(=O)[C@H](CCCNC(=N)N)NC(=O)[C@@H]1CCCN1C(=O)[C@H](CCCNC(=N)N)NC(=O)[C@@H]1CCCN1C(=O)[C@H](CC(C)C)NC(=O)[C@H](Cc1ccc(O)cc1)NC(=O)[C@@H]1CCCN1C(=O)[C@@H]1CCCN1C(=O)[C@H](CCCCN)NC(=O)[C@H](CC(=O)O)NC(=O)[C@@H](N)C(C)C)C(=O)N[C@@H](Cc1ccc(O)cc1)C(=O)N[C@@H](CC(N)=O)C(=O)N[C@@H](CCCN)C(N)=O [SEQ ID NO. 50, VDKPPYLPRPRPPRRIYNO-NH2] (H-VDKPPYLPRPRPPRRIYN[Orn]-NH2) | – | – | half-life [1]: 1.5 h
2 | CCCNC(=O)[C@H](CCCNC(=N)N)NC(=O)[C@H](CC(N)=O)NC(=O)[C@H](Cc1ccc(O)cc1)NC(=O)[C@@H](NC(=O)[C@H](CCCNC(=N)N)NC(=O)[C@H](CCCNC(=N)N)NC(=O)[C@@H]1CCCN1C(=O)[C@@H]1CCCN1C(=O)[C@H](CCCNC(=N)N)NC(=O)[C@@H]1CCCN1C(=O)[C@H](CCCNC(=N)N)NC(=O)[C@@H]1CCCN1C(=O)[C@H](CC(C)C)NC(=O)[C@H](Cc1ccc(O)cc1)NC(=O)[C@@H]1CCCN1C(=O)[C@@H]1CCCN1C(=O)[C@H](CCCCN)NC(=O)[C@H](CC(=O)O)NC(=O)[C@@H](N)C(C)C)[C@@H](C)CC [SEQ ID NO. 58] (H-VDKPPYLPRPRPPRRIYNR-NHPr) | – | – | half-life [1]: 2 h
3 | CC[C@H](C)[C@H](NC(=O)[C@H](CCCN)NC(=O)[C@H](CCCNC(=N)N)NC(=O)[C@@H]1CCCN1C(=O)[C@@H]1CCCN1C(=O)[C@H](CCCNC(=N)N)NC(=O)[C@@H]1CCCN1C(=O)[C@H](CCCNC(=N)N)NC(=O)[C@@H]1CCCN1C(=O)[C@H](CC(C)C)NC(=O)[C@H](Cc1ccc(O)cc1)NC(=O)[C@@H]1CCCN1C(=O)[C@@H]1CCCN1C(=O)[C@H](CCCCN)NC(=O)[C@H](CC(=O)O)NC(=O)[C@@H](N)C(C)C)C(=O)N[C@@H](Cc1ccc(O)cc1)C(=O)N[C@@H](CC(N)=O)C(=O)N[C@@H](CCCNC(=N)N)C(N)=O [SEQ ID NO. 61, VDKPPYLPRPRPPROIYNR-NH2] (H-VDKPPYLPRPRPPR[Orn]IYNR-NH2) | – | – | half-life [1]: 2 h
4 | CC[C@H](C)[C@H](NC(=O)C[C@H](CCCNC(=N)N)NC(=O)[C@H](CCCNC(=N)N)NC(=O)[C@@H]1CCCN1C(=O)[C@@H]1CCCN1C(=O)[C@H](CCCNC(=N)N)NC(=O)[C@@H]1CCCN1C(=O)[C@H](CCCNC(=N)N)NC(=O)[C@@H]1CCCN1C(=O)[C@H](CC(C)C)NC(=O)[C@H](Cc1ccc(O)cc1)NC(=O)[C@@H]1CCCN1C(=O)[C@@H]1CCCN1C(=O)[C@H](CCCCN)NC(=O)[C@H](CC(=O)O)NC(=O)[C@@H](N)C(C)C)C(=O)N[C@@H](Cc1ccc(O)cc1)C(=O)N[C@@H](CC(N)=O)C(=O)N[C@@H](CCCNC(=N)N)C(N)=O [SEQ ID NO. 62] (H-VDKPPYLPRPRPPR[β3hR]IYNR-NH2) | – | – | half-life [1]: 2.5 h
5 | CCCNC(=O)[C@H](CCCNC(=N)N)NC(=O)[C@H](CC(N)=O)NC(=O)[C@H](Cc1ccc(O)cc1)NC(=O)[C@@H](NC(=O)[C@H](CCCN)NC(=O)[C@H](CCCNC(=N)N)NC(=O)[C@@H]1CCCN1C(=O)[C@@H]1CCCN1C(=O)[C@H](CCCNC(=N)N)NC(=O)[C@@H]1CCCN1C(=O)[C@H](CCCNC(=N)N)NC(=O)[C@@H]1CCCN1C(=O)[C@H](CC(C)C)NC(=O)[C@H](Cc1ccc(O)cc1)NC(=O)[C@@H]1CCCN1C(=O)[C@@H]1CCCN1C(=O)[C@H](CCCCN)NC(=O)[C@H](CC(=O)O)NC(=O)[C@@H](N)C(C)C)[C@@H](C)CC [SEQ ID NO. 71, VDKPPYLPRPRPPROIYNR-NHC3H7] (H-VDKPPYLPRPRPPR[Orn]IYNR-NHPr) | 4 (≈ 1.67 µM) | – | half-life [1]: > 6 h
6 | CC[C@H](C)[C@H](NC(=O)[C@@H]1C[C@@H](O)CN1C(=O)[C@H](CCCNC(=N)N)NC(=O)[C@@H]1CCCN1C(=O)[C@@H]1CCCN1C(=O)[C@H](CCCNC(=N)N)NC(=O)[C@@H]1CCCN1C(=O)[C@H](CCCNC(=N)N)NC(=O)[C@@H]1CCCN1C(=O)[C@H](CC(C)C)NC(=O)[C@H](Cc1ccc(O)cc1)NC(=O)[C@@H]1CCCN1C(=O)[C@@H]1CCCN1C(=O)[C@H](CCCCN)NC(=O)[C@H](CC(=O)O)NC(=O)[C@@H](N)C(C)C)C(=O)N[C@@H](Cc1ccc(O)cc1)C(=O)N[C@@H](CC(N)=O)C(=O)N[C@@H](CCCNC(=N)N)C(N)=O [compound 25] (H-VDKPPYLPRPRPPR[Hyp]IYNR-NH2) | 16 (≈ 6.82 µM) | 8 (≈ 3.41 µM) | half-life [2]: 4 h
7 | CC[C@H](C)[C@H](NC(=O)[C@H](CCCCNC(=N)N)NC(=O)[C@H](CCCNC(=N)N)NC(=O)[C@@H]1CCCN1C(=O)[C@@H]1CCCN1C(=O)[C@H](CCCNC(=N)N)NC(=O)[C@@H]1CCCN1C(=O)[C@H](CCCNC(=N)N)NC(=O)[C@@H]1CCCN1C(=O)[C@H](CC(C)C)NC(=O)[C@H](Cc1ccc(O)cc1)NC(=O)[C@@H]1CCCN1C(=O)[C@@H]1CCCN1C(=O)[C@H](CCCCN)NC(=O)[C@H](CC(=O)O)NC(=O)[C@@H](N)C(C)C)C(=O)N[C@@H](Cc1ccc(O)cc1)C(=O)N[C@@H](CC(N)=O)C(=O)N[C@@H](CCCCNC(=N)N)C(N)=O [compound 67] (H-VDKPPYLPRPRPPR[hArg]IYN[hArg]-NH2) | 4 (≈ 1.65 µM) | 4 (≈ 1.65 µM) | half-life [2]: 0.917 h
8 | H-VDKPPYLPRPKPPRRIYNR-NH2 [compound 7] | 8 | 16 | –
9 | H-VDKPPYLPRPKPPRRIYNRN-OH [compound 6] | 32 | 16 | –
10 | H-VDKPPYLPRPNPPRRIYNR-OH [compound 11] | 64 | 64 | –
11 | H-VDKPPYLPRPPPPRRIYNNR-OH [compound 2] | 128 | 64 | –
12 | H-VDKPPYLPRPQPPRRIYNR-OH [compound 12] | 64 | 64 | –
13 | H-VDKPPYLPRPRPPRRIYN-NH2 [compound 27] | 32 | 64 | –
14 | H-VDKPPYLPRPRPPRRIYN-OH [SEQ ID NO. 28] | – | – | MIC E. coli BL21 A1 (E. coli BL21 A1; 1% TSB, 20 h at 37° C.): 64 µg/mL; half-life [1]: 2 h
15 | H-VDKPPYLPRPRPPRRIYNN-NH2 [compound 51] | 16 | 64 | half-life [1]: 2 h
16 | H-VDKPPYLPRPRPPRRIYNRN-NH2 [compound 17] | 16 | 128 | half-life [1]: 0.75 h
17 | H-VDKPPYLPRPTPPRRIYNNR-OH [compound 4] | 128 | 64 | –
18 | H-VDKPPYLPRPYPPRRIYNR-OH [compound 10] | 128 | 16 | –
19 | VDKGSYLPRPTPPRPIYNRN-NH2 [compound 91] | 16 | – | MIC M. luteus 10240 (M. luteus 10240; 1% TSB, 20 h at 37° C.): 128 µg/mL
20 | VDKPPYLPRPRPPRPIYNR-NH2 [SEQ ID NO. 60] | – | – | half-life [1]: 2 h
21 | VDKPPYLPRPRPPRPIYNR-NH2 [compound 60] | 8 | 64 | –
22 | VDKPPYLPRPRPPRRIYNNR-OH [SEQ ID NO. 14] | – | – | half-life [1]: < 0.5 h
23 | VDKPPYLPRPRPPRRIYNR-OH [SEQ ID NO. 19] | – | – | half-life [1]: < 0.5 h

More lines, main results first:

Row | MIC E. coli BL21 A1 (E. coli BL21 A1; BL21, 20 h) [µg/mL] | MIC M. luteus 10240 (M. luteus 10240; 10240, 20 h) [µg/mL] | Compound | also measured
24 | 16 | 8 | H-VDKPPYLPRPRAPRRIYNR-NH2 [compound 40] | –
25 | 16 | 8 | H-VDKPPYLPRPRPARRIYNR-NH2 [compound 41] | –
26 | 16 | 32 | H-VDKPPYLPRPRPPARIYNR-NH2 [compound 42] | –
27 | 32 | 16 | H-VDKPPYLPRPRPPRAIYNR-NH2 [compound 43] | –
28 | 8 | 32 | H-VDKPPYLPRPRPPRHIYNH-NH2 [compound 64] | –
29 | 128 | 8 | H-VDKPPYLPRPRPPRPIRV-OH [compound 48] | –
30 | 16 | 16 | H-VDKPPYLPRPRPPRRAYNR-NH2 [compound 44] | –
31 | 8 | 16 | H-VDKPPYLPRPRPPRRIANR-NH2 [compound 45] | –
32 | 8 | 8 | H-VDKPPYLPRPRPPRRIYAR-NH2 [compound 46] | –
33 | 32 | 16 | H-VDKPPYLPRPRPPRRIYNA-NH2 [compound 47] | –
34 | 4 | 4 | H-VDKPPYLPRPRPPRRIYPQPRPPHPRL-NH2 [compound 49] | –
35 | 8 | 8 | H-VDKPPYLPRPRPPRRIYQR-NH2 [compound 79] | –
36 | 8 | 16 | H-VDKPPYLPRPRPPRRLYNR-NH2 [compound 78] | –
37 | 8 | 16 | H-VDKPPYLPRPRPRPRIYNR-NH2 [compound 59] | –
38 | 16 | 8 | H-VDRPPYLPRPRPPRRIYNR-NH2 [compound 76] | –
39 | 16 | 8 | H-VEKPPYLPRPRPPRRIYNR-NH2 [compound 75] | –
